Measured values as given in ChEMBL document CHEMBL5370610, “Urotensin II Receptor Modulation with 1,3,4-Benzotriazepin-2-one Tetrapeptide Mimics” (J Med Chem, 2023).
Activity calls are given as the source filed them. The calls are words filed in the database; no cut-off is given here.

Columns and labels:
[1] = Agonist activity at RLucII-tagged Galpha-13 (unknown origin) expressed in HEK293 cells co-expressing human UT/GFP10-tagged G-gamma assessed as activation of Galpha-13 by BRET assay; assay type: cell-based
[2] = Agonist activity at RLucII-tagged Galpha-i (unknown origin) expressed in HEK293 cells co-expressing human UT/GFP10-tagged G-gamma assessed as activation of Galpha-i by BRET assay; assay type: cell-based
[3] = target: T1, Guanine nucleotide-binding protein G(q) subunit alpha (Homo sapiens, UniProt P50148); assay: Agonist activity at RLucII-tagged Galpha-q (unknown origin) expressed in HEK293 cells co-expressing human UT/GFP10-tagged G-gamma assessed as activation of Galpha-q by BRET assay; assay type: cell-based
T1 sequence (P50148 whole entry): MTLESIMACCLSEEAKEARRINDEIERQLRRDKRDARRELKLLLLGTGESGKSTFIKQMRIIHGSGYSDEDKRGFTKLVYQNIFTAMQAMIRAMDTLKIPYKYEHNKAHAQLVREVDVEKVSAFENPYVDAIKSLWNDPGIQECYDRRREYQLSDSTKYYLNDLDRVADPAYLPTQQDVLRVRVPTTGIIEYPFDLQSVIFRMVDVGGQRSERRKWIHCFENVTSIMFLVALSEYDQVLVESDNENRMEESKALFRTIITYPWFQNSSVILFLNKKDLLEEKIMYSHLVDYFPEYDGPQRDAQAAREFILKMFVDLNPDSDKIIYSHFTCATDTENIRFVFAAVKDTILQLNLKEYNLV

[4] = target: T2, Beta-arrestin-1 (Homo sapiens, UniProt P49407); assay: Agonist activity at RLucII/GFP10-tagged beta-arrestin-1 (unknown origin) recruitment expressed in HEK293 cells co-expressing human UT assessed as beta-arrestin recruitment by BRET assay; assay type: cell-based
T2 sequence (P49407 whole entry): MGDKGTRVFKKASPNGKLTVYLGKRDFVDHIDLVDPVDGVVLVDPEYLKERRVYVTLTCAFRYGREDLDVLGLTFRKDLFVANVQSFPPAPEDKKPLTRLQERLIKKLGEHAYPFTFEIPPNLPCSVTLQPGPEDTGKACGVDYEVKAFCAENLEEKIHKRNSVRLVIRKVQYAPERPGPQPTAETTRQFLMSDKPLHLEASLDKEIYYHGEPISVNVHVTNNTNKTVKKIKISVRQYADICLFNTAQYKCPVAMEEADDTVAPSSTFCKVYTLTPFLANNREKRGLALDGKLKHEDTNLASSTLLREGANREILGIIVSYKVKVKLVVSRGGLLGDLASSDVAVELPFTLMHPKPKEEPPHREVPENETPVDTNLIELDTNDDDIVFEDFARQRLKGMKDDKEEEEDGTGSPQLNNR

[5] = tested on: HEK293; assay: Agonist activity at RLucII-tagged Galpha-i (unknown origin) expressed in HEK293 cells co-expressing human UT/GFP10-tagged G-gamma assessed as activation of Galpha-i at 10^-5 M by BRET assay relative to hUII; assay type: cell-based; conditions: dose 1.0 10^-5M
[6] = target: T3, Guanine nucleotide-binding protein G(q) subunit alpha (Homo sapiens) (UniProt P50148); assay: Agonist activity at RLucII-tagged Galpha-q (unknown origin) expressed in HEK293 cells co-expressing human UT/GFP10-tagged G-gamma assessed as activation of Galpha-q at 10^-5 M by BRET assay relative to hUII; assay type: cell-based; conditions: dose 1.0 10^-5M
T3 sequence (whole entry): T1 sequence (P50148 whole entry)

[7] = tested on: Aorta; assay: Ex vivo modulatory effect on URP-induced contractile activity in Sprague-Dawley rat aortic ring at 10^-6 M pretreated for 30 mins followed by URP addition; assay type: functional, tissue-based; conditions: dose 1.0 10^-6M
[8] = target: T2, Beta-arrestin-1; assay: Agonist activity at RLucII/GFP10-tagged beta-arrestin-1 (unknown origin) expressed in HEK293 cells co-expressing human UT assessed as beta-arrestin recruitment at 10^-5 M by BRET assay relative to hUII; assay type: cell-based; conditions: filed as agonist, dose 1.0 10^-5M
[9] = tested on: HEK293; assay: Agonist activity at RLucII-tagged Galpha-13 (unknown origin) expressed in HEK293 cells co-expressing human UT/GFP10-tagged G-gamma assessed as activation of Galpha-13 at 10^-5 M by BRET assay relative to hUII; assay type: cell-based; conditions: filed as agonist, dose 1.0 10^-5M
[10] = tested on: Aorta; assay: Ex vivo modulatory effect on hUII-induced contractile activity in Sprague-Dawley rat aortic ring at 10^-6 M pretreated for 30 mins followed by hUII addition; assay type: functional, tissue-based; conditions: dose 1.0 10^-6M
[11] = target: T1, Guanine nucleotide-binding protein G(q) subunit alpha; assay: Antagonist activity at URP-activated RLucII-tagged Galpha-q (unknown origin) expressed in HEK293 cells co-expressing human UT/GFP10-tagged G-gamma by BRET assay (reference value: 7.33 +/- 0.10); assay type: cell-based
[12] = target: T1, Guanine nucleotide-binding protein G(q) subunit alpha; assay: Antagonist activity at hUII-activated RLucII-tagged Galpha-q (unknown origin) expressed in HEK293 cells co-expressing human UT/GFP10-tagged G-gamma by BRET assay (reference value: 8.26 +/- 0.09); assay type: cell-based
[13] = tested on: Aorta; assay: Ex vivo modulatory effect on URP-induced contractile activity in Sprague-Dawley rat aortic ring at 10^-6 M pretreated for 30 mins followed by URP addition (reference value: 100 +/- 8 %); assay type: functional; conditions: 0.5 h, dose 1 10^-6M
[14] = target: T3, Guanine nucleotide-binding protein G(q) subunit alpha (Homo sapiens); assay: Agonist activity at RLucII-tagged Galpha-q (unknown origin) expressed in HEK293 cells co-expressing human UT/GFP10-tagged G-gamma assessed as activation of Galpha-q at 10^-5 M by BRET assay; assay type: cell-based; conditions: dose 1.0 10^-5M
[15] = tested on: Aorta; assay: Ex vivo modulatory effect on hUII-induced contractile activity in Sprague-Dawley rat aortic ring (reference value: 8.37 +/- 0.08); assay type: functional, tissue-based
[16] = target: T3, Guanine nucleotide-binding protein G(q) subunit alpha (Homo sapiens); assay: Antagonist activity at URP-activated RLucII-tagged Galpha-q (unknown origin) expressed in HEK293 cells co-expressing human UT/GFP10-tagged G-gamma at 10^-6 M by BRET assay (reference value: 100 +/- 4 %); assay type: cell-based; conditions: filed as antagonist, dose 1.0 10^-6M
[17] = tested on: Aorta; assay: Ex vivo modulatory effect on URP-induced contractile activity in Sprague-Dawley rat aortic ring (reference value: 8.06 +/- 0.27); assay type: functional, tissue-based
[18] = tested on: HEK293; assay: Antagonist activity at hUII-activated RLucII-tagged Galpha-q (unknown origin) expressed in HEK293 cells co-expressing human UT/GFP10-tagged G-gamma at 10^-6 M by BRET assay (reference value: 100 +/- 4 %); assay type: cell-based; conditions: filed as antagonist, dose 1.0 10^-6M
[19] = tested on: Aorta; assay: Ex vivo modulatory effect on hUII-induced contractile activity in Sprague-Dawley rat aortic ring at 10^-6 M pretreated for 30 mins followed by hUII addition (reference value: 100 +/- 9 %); assay type: functional; conditions: 0.5 h, dose 1 10^-6M
[20] = Antagonist activity at URP-activated RLucII-tagged Galpha-i (unknown origin) expressed in HEK293 cells co-expressing human UT/GFP10-tagged G-gamma by BRET assay (reference value: 7.10 +/- 0.19); assay type: cell-based
[21] = tested on: HEK293; assay: Antagonist activity at URP-activated RLucII-tagged Galpha-i (unknown origin) expressed in HEK293 cells co-expressing human UT/GFP10-tagged G-gamma at 10^-6 M by BRET assay (reference value: 100 +/- 7 %); assay type: cell-based; conditions: filed as antagonist, dose 1.0 10^-6M
[22] = Antagonist activity at hUII-activated RLucII-tagged Galpha-i (unknown origin) expressed in HEK293 cells co-expressing human UT/GFP10-tagged G-gamma by BRET assay (reference value: 7.41 +/- 0.15); assay type: cell-based
[23] = tested on: HEK293; assay: Agonist activity at RLucII-tagged Galpha-i (unknown origin) expressed in HEK293 cells co-expressing human UT/GFP10-tagged G-gamma assessed as activation of Galpha-i at 10^-5 M by BRET assay; assay type: cell-based; conditions: dose 1.0 10^-5M
[24] = tested on: HEK293; assay: Antagonist activity at hUII-activated RLucII-tagged Galpha-i (unknown origin) expressed in HEK293 cells co-expressing human UT/GFP10-tagged G-gamma at 10^-6 M by BRET assay (reference value: 100 +/- 5 %); assay type: cell-based; conditions: filed as antagonist, dose 1.0 10^-6M

SMILES | EC50 [1] | EC50 [2] | EC50 [3] | EC50 [4] | Emax ([5]; filed as agonist) | Emax [8] | Emax [9] | EC50 [11] | EC50 [12] | Emax at 1 µM [13] | Activity [14] | EC50 [15] | Emax [16] | EC50 [17] | Emax [18] | Emax at 1 µM [19] | other results
CC(C)[C@H](NC(=O)[C@@H]1CSSC[C@H](NC(=O)[C@H](CC(=O)O)NC(=O)[C@@H]2CCCN2C(=O)[C@@H](NC(=O)[C@@H](N)CCC(=O)O)[C@@H](C)O)C(=O)N[C@@H](Cc2ccccc2)C(=O)N[C@@H](Cc2c[nH]c3ccccc23)C(=O)N[C@@H](CCCCN)C(=O)N[C@@H](Cc2ccc(O)cc2)C(=O)N1)C(=O)O [UROTENSIN-II] | 16.2 nM | 18.2 nM | 13.8 nM | 20.4 nM |  |  |  |  |  |  |  |  |  |  |  |  | 
COc1ccc(/C=C/C2=NN(CCCCN)C(=O)N(Cc3ccc(-c4ccccc4)cc3)c3cc(C(=O)NCCOc4ccccc4)ccc32)cc1 | 45.7 nM | > 10000 nM | > 10000 nM | 0.49 nM | 50% | 78% | 102% |  |  |  |  |  |  |  |  |  | Emax ([6]; filed as agonist): 52%; Activity [7]: Active; Activity [10]: Active
NCCCCN1N=C(/C=C/c2ccc(O)cc2)c2ccc(C(=O)NCc3ccccc3)cc2N(Cc2ccc(-c3ccccc3)cc2)C1=O | 10.5 nM | > 10000 nM |  | 1230 nM |  | 275% | 115% | 17 nM | 7.08 nM | 58% | inactive | 1.1 nM | 111% | 13.5 nM | 85% | 121% | Emax [5]: 30%
CN(Cc1ccccc1)C(=O)c1ccc2c(c1)N(Cc1ccc(-c3ccccc3)cc1)C(=O)N(CCCCN)N=C2CCc1ccc(O)cc1 | 302 nM |  |  | 933 nM |  | 194% | 152% | 28.2 nM | 8.51 nM | 71% | inactive | 6.76 nM | 92% | 43.7 nM | 94% | 70% | EC50 [20]: 178 nM; Emax [21]: 91%; EC50 [22]: 41.7 nM; Activity [23]: inactive; Emax [24]: 89%
NCCCCN1N=C(CCc2ccc(O)cc2)c2ccc(C(=O)NCCCc3ccccc3)cc2N(Cc2ccc(-c3ccccc3)cc2)C1=O | 21.9 nM | > 10000 nM |  | 174 nM | 45% | 165% | 119% | 18.6 nM | 5.89 nM | 112% | inactive | 1.02 nM | 76% | 4.07 nM | 65% | 143% | 
COc1ccc(/C=C/C2=NN(CCCCN)C(=O)N(Cc3ccc(-c4ccccc4)cc3)c3cc(C(=O)NCCCc4ccccc4)ccc32)cc1 | 20.9 nM | > 10000 nM | > 10000 nM | 1200 nM |  | 98% | 103% |  |  | 77% |  | 0.741 nM |  | 3.72 nM |  | 252% | Emax [5]: 18%; Emax ([6]; filed as agonist): 54%
NCCCCN1N=C(CCc2ccc(O)cc2)c2ccc(C(=O)NCCOc3ccccc3)cc2N(Cc2ccc(-c3ccccc3)cc2)C1=O | 288 nM | > 10000 nM |  | 1780 nM | 51% | 198% | 215% | 34.7 nM | 6.92 nM | 83% | inactive | 6.17 nM | 81% | 16.2 nM | 95% | 197% | 
NCCCCN1N=C(/C=C/c2ccc(O)cc2)c2ccc(C(=O)NCC(c3ccccc3)c3ccccc3)cc2N(Cc2ccc(-c3ccccc3)cc2)C1=O | 200 nM |  |  | 95.5 nM |  | 76% | 198% | 25.1 nM | 6.92 nM | 56% | inactive | 5.5 nM | 103% | 44.7 nM | 83% | 77% | EC50 [20]: 102 nM; Emax [21]: 89%; EC50 [22]: 53.7 nM; Activity [23]: inactive; Emax [24]: 95%
COc1ccc(/C=C/C2=NN(CCCCN)C(=O)N(Cc3ccc(-c4ccccc4)cc3)c3cc(C(=O)NCc4ccccc4)ccc32)cc1 | 81.3 nM |  |  | 9.33 nM |  | 98% | 122% | 43.7 nM | 13.2 nM | 27% | inactive | 0.661 nM | 79% | 8.13 nM | 90% | 85% | EC50 [20]: 148 nM; Emax [21]: 63%; EC50 [22]: 11.7 nM; Activity [23]: inactive; Emax [24]: 80%
CN(Cc1ccccc1)C(=O)c1ccc2c(c1)N(Cc1ccc(-c3ccccc3)cc1)C(=O)N(CCCCN)N=C2/C=C/c1ccc(O)cc1 | 178 nM | 589 nM | > 10000 nM | 117 nM | 73% | 82% | 129% |  |  | 120% |  | 0.955 nM |  | 3.31 nM |  | 61% | Emax [6]: 37%
NCCCCN1N=C(/C=C/c2ccc(O)cc2)c2ccc(C(=O)NCCCc3ccccc3)cc2N(Cc2ccc(-c3ccccc3)cc2)C1=O | 16.2 nM | 1170 nM | > 10000 nM | 851 nM | 75% | 108% | 104% |  |  | 161% |  | 14.5 nM |  | 1.55 nM |  | 123% | Emax [6]: 26%
CC(C)[C@H](NC(=O)[C@@H]1CSSC[C@H](NC(=O)[C@H](C)N)C(=O)N[C@@H](Cc2ccccc2)C(=O)N[C@@H](Cc2c[nH]c3ccccc23)C(=O)N[C@@H](CCCCN)C(=O)N[C@@H](Cc2ccc(O)cc2)C(=O)N1)C(=O)O |  |  | 8.91 nM |  |  |  |  |  |  |  |  |  |  |  |  |  | Emax ([6]; filed as agonist): 101%
